Tests used:
Rattus norvegicus = species: Rattus norvegicus; assay: Drug recovery in rat; format: ADME, organism-based; conditions: in vivo
Serum [1] = assay: Drug level in healthy obese adult male human serum at 25 mg, po administered as single dose after 48 hrs by HPLC method; format: ADME, organism-based; conditions: in vivo
Serum [2] = assay: AUC in healthy obese adult male human serum at 25 mg, po administered as single dose after 48 hrs by HPLC method; format: ADME, organism-based, Plasma; parameters: time < 48 hr, dose 25 mg, route oral; conditions: in vivo
Cytochrome P450 2E1 = Cytochrome P450 2E1 (Homo sapiens, UniProt P05181); assay: Drug metabolism assessed as human recombinant CYP2E1-mediated metabolite formation at 10 uM after 60 mins by HPLC method; format: ADME; conditions: recombinant enzyme, 1 h
Serum [3] = assay: Drug level in healthy obese adult male human serum at 25 mg, po administered as single dose after 12 hrs by HPLC method; format: ADME, organism-based; conditions: in vivo
Homo sapiens [4] = assay: Terminal elimination half life in healthy obese adult male human assessed as total radioactivity at 25 mg, po administered as single dose; format: ADME, organism-based; conditions: in vivo
Cytochrome P450 2C19 = Cytochrome P450 2C19 (Homo sapiens, UniProt P33261); assay: Drug metabolism assessed as human recombinant CYP2C19-mediated metabolite formation at 10 uM after 60 mins by HPLC method; format: ADME; conditions: recombinant enzyme, 1 h
Homo sapiens [5] = assay: Cmax in healthy obese adult male human assessed as total radioactivity at 25 mg, po administered as single dose; format: ADME, organism-based; parameters: dose 25 mg, route oral; conditions: in vivo
Serum [6] = assay: Drug level in healthy obese adult male human serum at 25 mg, po administered as single dose after 24 hrs by HPLC method; format: ADME, organism-based; conditions: in vivo
Canis familiaris = species: Canis familiaris; assay: Drug recovery in dog; format: ADME, organism-based, Canis lupus familiaris; conditions: in vivo
Cytochrome P450 2D6 = Cytochrome P450 2D6 (Homo sapiens, UniProt P10635); assay: Drug metabolism assessed as human recombinant CYP2D6-mediated metabolite formation at 10 uM after 60 mins by HPLC method; format: ADME; conditions: recombinant enzyme, 1 h
Homo sapiens [7] = assay: AUC (0 to last) in healthy obese adult male human assessed as total radioactivity at 25 mg, po administered as single dose; format: ADME, organism-based, Plasma; conditions: in vivo
Homo sapiens [8] = assay: AUC (0 to infinity) in healthy obese adult male human assessed as total radioactivity at 25 mg, po administered as single dose; format: ADME, organism-based, Plasma; parameters: dose 25 mg, time infinity, route oral; conditions: in vivo
Mus musculus = species: Mus musculus; assay: Drug recovery in mouse; format: ADME, organism-based; conditions: in vivo
Cytochrome P450 1A1 = target: T1, Cytochrome P450 1A1 (Homo sapiens, UniProt P04798); assay: Drug metabolism assessed as human recombinant CYP1A1-mediated metabolite formation at 10 uM after 60 mins by HPLC method; format: ADME; conditions: recombinant enzyme, 1 h
T1 sequence (P04798 whole entry): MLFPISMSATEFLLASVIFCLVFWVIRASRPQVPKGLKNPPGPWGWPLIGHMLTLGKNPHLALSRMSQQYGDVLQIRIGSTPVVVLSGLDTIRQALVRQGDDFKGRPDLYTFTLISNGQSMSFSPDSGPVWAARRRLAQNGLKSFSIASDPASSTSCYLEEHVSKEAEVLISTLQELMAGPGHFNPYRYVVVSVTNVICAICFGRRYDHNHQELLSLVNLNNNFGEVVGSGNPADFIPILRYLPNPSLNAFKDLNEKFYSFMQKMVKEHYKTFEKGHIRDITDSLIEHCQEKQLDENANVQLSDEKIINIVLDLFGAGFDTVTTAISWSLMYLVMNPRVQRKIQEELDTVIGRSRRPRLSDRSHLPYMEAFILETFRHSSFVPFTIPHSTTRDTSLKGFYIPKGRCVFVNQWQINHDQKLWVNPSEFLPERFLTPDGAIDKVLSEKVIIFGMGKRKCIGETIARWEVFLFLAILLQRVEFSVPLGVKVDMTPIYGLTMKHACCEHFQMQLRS

Homo sapiens [9] = assay: Tmax in healthy obese adult male human assessed as total radioactivity at 25 mg, po administered as single dose; format: ADME, organism-based; conditions: in vivo
Serum [10] = assay: Total drug level in healthy obese adult male human serum at 25 mg, po administered as single dose after 48 hrs by HPLC method; format: ADME, organism-based; conditions: in vivo
Cytochrome P450 1A2 = target: T2, Cytochrome P450 1A2 (Homo sapiens, UniProt P05177); assay: Drug metabolism assessed as human recombinant CYP1A2-mediated metabolite formation at 10 uM after 60 mins by HPLC method; format: ADME; conditions: recombinant enzyme, 1 h
T2 sequence (P05177 whole entry): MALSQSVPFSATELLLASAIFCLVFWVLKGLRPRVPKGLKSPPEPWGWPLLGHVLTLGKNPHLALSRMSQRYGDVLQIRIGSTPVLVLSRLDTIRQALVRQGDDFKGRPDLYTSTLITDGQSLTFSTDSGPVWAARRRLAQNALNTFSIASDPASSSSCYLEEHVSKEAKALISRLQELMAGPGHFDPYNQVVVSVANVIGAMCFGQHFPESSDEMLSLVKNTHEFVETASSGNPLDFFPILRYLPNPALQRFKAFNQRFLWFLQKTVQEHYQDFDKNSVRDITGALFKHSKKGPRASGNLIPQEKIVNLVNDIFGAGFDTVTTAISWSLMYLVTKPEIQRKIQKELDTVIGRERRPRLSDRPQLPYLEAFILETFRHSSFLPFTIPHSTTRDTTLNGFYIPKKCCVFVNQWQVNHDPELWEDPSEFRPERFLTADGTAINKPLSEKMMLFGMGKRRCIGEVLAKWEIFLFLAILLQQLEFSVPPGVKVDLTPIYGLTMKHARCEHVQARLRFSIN

Cytochrome P450 2C8 = target: T3, Cytochrome P450 2C8 (Homo sapiens, UniProt P10632); assay: Drug metabolism assessed as human recombinant CYP2C8-mediated metabolite formation at 10 uM after 60 mins by HPLC method; format: ADME; conditions: recombinant enzyme, 1 h
T3 sequence (P10632 whole entry): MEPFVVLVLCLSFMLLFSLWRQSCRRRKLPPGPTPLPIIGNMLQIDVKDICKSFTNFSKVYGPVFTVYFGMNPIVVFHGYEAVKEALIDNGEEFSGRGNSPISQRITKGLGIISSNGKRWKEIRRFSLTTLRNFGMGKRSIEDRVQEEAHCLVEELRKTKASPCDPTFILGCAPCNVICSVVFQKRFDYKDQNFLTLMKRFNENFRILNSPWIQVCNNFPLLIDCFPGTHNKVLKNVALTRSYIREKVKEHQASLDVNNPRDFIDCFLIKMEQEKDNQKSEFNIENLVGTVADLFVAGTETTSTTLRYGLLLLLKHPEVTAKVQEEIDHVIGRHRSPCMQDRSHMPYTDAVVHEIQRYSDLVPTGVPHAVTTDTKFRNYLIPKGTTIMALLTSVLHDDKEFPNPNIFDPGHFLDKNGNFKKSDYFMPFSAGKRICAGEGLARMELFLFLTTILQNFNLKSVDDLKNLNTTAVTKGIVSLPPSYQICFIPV

Cytochrome P450 2C9 = Cytochrome P450 2C9 (Homo sapiens, UniProt P11712); assay: Drug metabolism assessed as human recombinant CYP2C9-mediated metabolite formation at 10 uM after 60 mins by HPLC method; format: ADME; conditions: recombinant enzyme, 1 h
Serum [11] = assay: Drug level in healthy obese adult male human serum at 25 mg, po administered as single dose after 4 hrs by HPLC method; format: ADME, organism-based; conditions: in vivo

Sequence of Cytochrome P450 2C9 (P11712 whole entry): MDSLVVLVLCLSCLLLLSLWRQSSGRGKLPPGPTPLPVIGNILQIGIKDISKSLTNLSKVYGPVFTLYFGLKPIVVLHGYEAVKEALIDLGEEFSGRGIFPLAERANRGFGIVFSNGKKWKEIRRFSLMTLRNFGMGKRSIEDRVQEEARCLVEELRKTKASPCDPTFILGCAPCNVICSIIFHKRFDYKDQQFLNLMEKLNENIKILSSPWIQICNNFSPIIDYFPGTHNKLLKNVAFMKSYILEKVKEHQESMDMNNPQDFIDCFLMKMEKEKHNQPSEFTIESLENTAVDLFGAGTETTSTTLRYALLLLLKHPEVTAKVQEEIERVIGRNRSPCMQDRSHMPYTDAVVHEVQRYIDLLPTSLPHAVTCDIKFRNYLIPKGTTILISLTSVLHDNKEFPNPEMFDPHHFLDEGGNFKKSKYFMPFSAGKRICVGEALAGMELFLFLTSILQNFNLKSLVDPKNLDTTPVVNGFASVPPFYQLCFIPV
Sequence of Cytochrome P450 2C19 (P33261 whole entry): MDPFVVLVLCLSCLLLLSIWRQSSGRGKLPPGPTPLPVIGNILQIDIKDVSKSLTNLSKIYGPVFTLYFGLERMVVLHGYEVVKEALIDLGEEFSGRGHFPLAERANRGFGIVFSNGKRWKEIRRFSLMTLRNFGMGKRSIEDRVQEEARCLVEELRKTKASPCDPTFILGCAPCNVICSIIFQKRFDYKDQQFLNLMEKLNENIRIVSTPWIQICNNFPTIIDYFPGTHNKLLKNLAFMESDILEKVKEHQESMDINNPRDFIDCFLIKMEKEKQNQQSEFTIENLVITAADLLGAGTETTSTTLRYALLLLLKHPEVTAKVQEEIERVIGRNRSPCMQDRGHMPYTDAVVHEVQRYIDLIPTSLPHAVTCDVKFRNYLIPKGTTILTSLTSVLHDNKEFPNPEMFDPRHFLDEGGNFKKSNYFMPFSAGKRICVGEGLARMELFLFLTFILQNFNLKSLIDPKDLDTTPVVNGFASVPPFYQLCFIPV
Sequence of Cytochrome P450 2E1 (P05181 whole entry): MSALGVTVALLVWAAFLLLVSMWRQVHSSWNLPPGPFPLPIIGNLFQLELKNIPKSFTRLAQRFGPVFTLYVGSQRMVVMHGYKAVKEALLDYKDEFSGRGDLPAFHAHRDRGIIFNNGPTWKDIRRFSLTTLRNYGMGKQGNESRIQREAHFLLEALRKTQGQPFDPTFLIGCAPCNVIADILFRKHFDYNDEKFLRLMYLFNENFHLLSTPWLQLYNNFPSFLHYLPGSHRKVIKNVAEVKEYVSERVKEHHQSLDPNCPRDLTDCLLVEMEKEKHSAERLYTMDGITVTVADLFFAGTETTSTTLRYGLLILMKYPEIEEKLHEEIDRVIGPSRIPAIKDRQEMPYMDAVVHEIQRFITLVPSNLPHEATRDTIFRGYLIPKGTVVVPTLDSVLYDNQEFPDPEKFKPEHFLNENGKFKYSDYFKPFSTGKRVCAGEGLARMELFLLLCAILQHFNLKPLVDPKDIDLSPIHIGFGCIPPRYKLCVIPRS
Sequence of Cytochrome P450 2D6 (P10635 whole entry): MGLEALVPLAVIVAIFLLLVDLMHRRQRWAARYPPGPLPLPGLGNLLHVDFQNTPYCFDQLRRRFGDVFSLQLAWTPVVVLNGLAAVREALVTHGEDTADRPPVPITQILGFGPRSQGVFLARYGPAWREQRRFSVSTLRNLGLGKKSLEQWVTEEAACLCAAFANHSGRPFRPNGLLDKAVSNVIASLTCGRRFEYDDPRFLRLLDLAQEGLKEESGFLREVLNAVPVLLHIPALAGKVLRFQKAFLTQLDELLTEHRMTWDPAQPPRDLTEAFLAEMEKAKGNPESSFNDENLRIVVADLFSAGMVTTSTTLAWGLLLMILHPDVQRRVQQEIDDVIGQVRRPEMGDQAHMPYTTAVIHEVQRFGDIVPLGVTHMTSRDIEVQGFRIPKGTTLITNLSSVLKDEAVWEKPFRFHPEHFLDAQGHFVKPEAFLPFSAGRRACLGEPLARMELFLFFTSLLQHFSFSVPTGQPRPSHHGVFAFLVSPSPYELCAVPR

- Drug recovery (Rattus norvegicus): 98%
- Drug uptake (Serum [1]): 2.7 ngequiv/g
- AUC (Serum [2]): 297 ngequiv.hr/g
- Drug metabolism (Cytochrome P450 2E1): metabolite_not_detected
- Drug uptake (Serum [3]): 8 ngequiv/g
- beta t1/2 (Homo sapiens [4]): 190 h
- Drug metabolism (Cytochrome P450 2C19): metabolite_not_detected
- Cmax (Homo sapiens [5]): 74 ngequiv/g
- Drug uptake (Serum [6]): 6.4 ngequiv/g
- Drug recovery (Canis familiaris): 99%
- Drug metabolism (Cytochrome P450 2D6): metabolite_not_detected
- AUClast (Homo sapiens [7]): 8298 ngequiv.hr/g
- AUC (Homo sapiens [8]): 9434 ng/h/mL
- Drug recovery (Mus musculus): 98%
- Drug metabolism (Cytochrome P450 1A1): metabolite_not_detected
- Tmax (Homo sapiens [9]): 6 h
- Drug uptake (Serum [10]): 12.1 ngequiv/g
- Drug metabolism (Cytochrome P450 1A2): metabolite_not_detected
- Drug metabolism (Cytochrome P450 2C8): metabolite_not_detected
- Drug metabolism (Cytochrome P450 2C9): metabolite_not_detected
- Drug uptake (Serum [11]): 11.5 ngequiv/g
SMILES: CCNC1(C(N)=O)CCN(c2ncnc3c2n[14c](-c2ccccc2Cl)n3-c2ccc(Cl)cc2)CC1.Cl

Reference: ChEMBL document CHEMBL3526047, “Excretion, metabolism, and pharmacokinetics of 1-(8-(2-chlorophenyl)-9-(4-chlorophenyl)-9H-purin-6-yl)-4-(ethylamino)piperidine-4-carboxamide, a selective cannabinoid receptor antagonist, in healthy male volunteers” (Drug Metab Dispos, 2012)
